From patent US11254690B2, “PTEFb inhibiting macrocyclic compounds” (BAYER AKTIENGESELLSCHAFT, priority 2017, dated 2022)

Legend:
CDK9/CycT1 = biological target: T1, CDK9/CycT1 (Homo sapiens, UniProt P50750); test: CDK9/CycT1 high ATP kinase assay (TR-FRET, 2 mM ATP); format: biochemical; settings: for IC50: 2 mM ATP, Method 1b, lower limit for IC50s about 1-2 nM; for Selectivity high ATP CDK9 over high ATP CDK2: IC50 (high ATP CDK2)/IC50 (high ATP CDK9): ratio from Methods 1b and 2b, minimal values for IC50s near the assay limit
T1 construct: Recombinant full-length His-tagged human CDK9 and CycT1; His; purchased Life Technologies PV4131; host or cells: insect cells
Experimental: 1b. CDK9/CycT1 High ATP Kinase Assay
CDK9/CycT1-inhibitory activity of compounds of the present invention at a high ATP concentration after preincubation of enzyme and test compounds was quantified employing the CDK9/CycT1 TR-FRET assay as described in the following paragraphs.
Recombinant full-length His-tagged human CDK9 and CycT1, expressed in insect cells and purified by Ni-NTA affinity chromatography, were purchased from Life Technologies (Cat. No PV4131). As substrate for the kinase reaction biotinylated peptide biotin-Ttds-YISPLKSPYKISEG (C-terminus in amide form) was used which can be purchased e.g. form the company JERINI peptide technologies (Berlin, Germany).
(§1) For the assay 50 nl of a 100 fold concentrated solution of the test compound in DMSO was pipetted into either a black low volume 384 well microtiter plate or a black 1536 well microtiter plate (both Greiner Bio-One, Frickenhausen, Germany), 2 μl of a solution of CDK9/CycT1 in aqueous assay buffer [50 mM Tris/HCl pH 8.0, 10 mM MgCl2, 1.0 mM dithiothreitol, 0.1 mM sodium ortho-vanadate, 0.01% (v/v) Nonidet-P40 (Sigma)] were added and the mixture was incubated for 15 min at 22° C. to allow pre-binding of the test compounds to the enzyme before the start of the kinase reaction. […] The concentration of CDK9/CycT1 was adjusted depending of the activity of the enzyme lot and was chosen appropriate to have the assay in the linear range, typical concentrations were in the range of 0.5 μg/ml. The reaction was stopped by the addition of 3 μl of a solution of TR-FRET detection reagents (0.33 μM streptavidine-XL665 [Cisbio Bioassays, Codolet, France] and 1.67 nM anti-RB(pSer807/pSer811)-antibody from BD Pharmingen [#558389] and 2 nM LANCE EU-W1024 labeled anti-mouse IgG antibody [Perkin-Elmer, product no. AD0077]) in an aqueous EDTA-solution (167 mM EDTA, 0.2% (w/v) bovine serum albumin in 100 mM HEPES pH 7.5).
(§2) The resulting mixture was incubated 1 h at 22° C. to allow the formation of complex between the phosphorylated biotinylated peptide and the detection reagents. Subsequently the amount of phosphorylated substrate was evaluated by measurement of the resonance energy transfer from the Eu-chelate to the streptavidine-XL. Therefore, the fluorescence emissions at 620 nm and 665 nm after excitation at 350 nm was measured in a TR-FRET reader, e.g. a Pherastar (BMG Labtechnologies, Offenburg, Germany) or a Viewlux (Perkin-Elmer). The ratio of the emissions at 665 nm and at […] was taken as the measure for the amount of phosphorylated substrate. The data were normalised (enzyme reaction without inhibitor=0% inhibition, all other assay components but no enzyme=100% inhibition).

CDK2/CycE = biological target: T2, CDK2/CycE (Homo sapiens, UniProt P24941); test: CDK2/CycE high ATP kinase assay (TR-FRET, 2 mM ATP); format: biochemical; settings: Method 2b
T2 construct: GST; purchased ProQinase GmbH (Freiburg, Germany); host or cells: insect cells (Sf9)
Experimental: 2b. CDK2/CycE High ATP Kinase Assay
CDK2/CycE-inhibitory activity of compounds of the present invention at 2 mM adenosine-tri-phosphate (ATP) was quantified employing the CDK2/CycE TR-FRET (TR-FRET=Time Resolved Fluorescence Energy Transfer) assay as described in the following paragraphs.
Recombinant fusion proteins of GST and human CDK2 and of GST and human CycE, expressed in insect cells (Sf9) and purified by Glutathion-Sepharose affinity chromatography, were purchase from ProQinase GmbH (Freiburg, Germany). As substrate for the kinase reaction biotinylated peptide biotin-Ttds-YISPLKSPYKISEG (C-terminus in amid form) was used which can be purchased e.g. form the company JERINI peptide technologies (Berlin, Germany).
as §1, with “CDK2/CycE” for “CDK9/CycT1”, “about 10 ng/ml.” for “in the range of 0.5 μg/ml.”, “(0.333” for “(0.33”, “AD0077, as an alternative a Terbium-cryptate-labeled anti-mouse IgG antibody from Cisbio Bioassays can be used])” for “AD0077])”
as §2

T1 sequence (P50750 whole entry): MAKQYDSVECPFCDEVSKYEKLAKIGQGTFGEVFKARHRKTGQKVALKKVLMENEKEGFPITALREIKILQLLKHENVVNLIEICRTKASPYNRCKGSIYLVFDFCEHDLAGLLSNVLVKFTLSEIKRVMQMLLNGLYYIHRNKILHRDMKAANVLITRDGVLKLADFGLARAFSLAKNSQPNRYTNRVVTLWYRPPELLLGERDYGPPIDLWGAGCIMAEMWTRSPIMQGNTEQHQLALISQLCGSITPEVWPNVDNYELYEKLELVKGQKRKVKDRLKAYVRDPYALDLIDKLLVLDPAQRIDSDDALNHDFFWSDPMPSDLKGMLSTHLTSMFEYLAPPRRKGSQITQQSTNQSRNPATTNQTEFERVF
T1 sequence (O60563 whole entry partner): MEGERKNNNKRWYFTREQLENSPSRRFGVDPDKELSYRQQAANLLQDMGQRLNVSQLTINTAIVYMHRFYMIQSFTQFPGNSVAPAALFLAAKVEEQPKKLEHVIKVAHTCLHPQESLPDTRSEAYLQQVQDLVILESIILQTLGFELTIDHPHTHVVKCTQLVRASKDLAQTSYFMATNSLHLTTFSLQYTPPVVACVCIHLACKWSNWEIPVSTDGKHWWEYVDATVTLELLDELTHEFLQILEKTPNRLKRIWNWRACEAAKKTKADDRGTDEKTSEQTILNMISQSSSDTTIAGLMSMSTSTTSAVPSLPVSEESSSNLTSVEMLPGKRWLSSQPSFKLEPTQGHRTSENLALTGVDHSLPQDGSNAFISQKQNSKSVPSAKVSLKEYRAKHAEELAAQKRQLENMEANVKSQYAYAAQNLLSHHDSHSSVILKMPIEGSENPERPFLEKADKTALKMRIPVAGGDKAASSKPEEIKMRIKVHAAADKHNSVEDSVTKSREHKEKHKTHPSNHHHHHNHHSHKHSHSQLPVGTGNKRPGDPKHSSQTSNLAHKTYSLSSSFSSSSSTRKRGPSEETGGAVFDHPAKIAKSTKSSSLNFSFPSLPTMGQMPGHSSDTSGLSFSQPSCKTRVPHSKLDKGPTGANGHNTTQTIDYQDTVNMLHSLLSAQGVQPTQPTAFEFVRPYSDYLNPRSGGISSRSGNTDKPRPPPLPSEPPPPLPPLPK

IC50 (CDK9/CycT1) | Selectivity high ATP CDK9 over high ATP CDK2: IC50 (high ATP CDK2)/IC50 (high ATP CDK9) (CDK9/CycT1) | IC50 (CDK2/CycE) | Compound
138 nM | >145 | > 20000 nM | CSCc1cc2nc(c1)OC(C)CCCCOc1cc(ccc1F)-c1cc(ncc1F)N2 (single isomer, unassigned) [Example 19, 3,21-difluoro-14-methyl-10-[(methylsulfanyl)methyl]-13,19-dioxa-5,7,25-triazatetracyclo[18.3.1.1^2,6.1^8,12]hexacosa-1(24),2(26),3,5,8(25),9,11,20,22-nonaene]
32 nM | >625 | > 20000 nM | CSCc1cc2nc(c1)OC(C)CCCCOc1cc(ccc1F)-c1cc(ncc1F)N2 (racemic) [Example 18, (rac)-3,21-difluoro-14-methyl-10-[(methylsulfanyl)methyl]-13,19-dioxa-5,7,25-triazatetracyclo[18.3.1.1^2,6.1^8,12]hexacosa-1(24),2(26),3,5,8(25),9,11,20,22-nonaene]
23 nM | 548 | 12600 nM | CSCc1cc2nc(c1)OC(C)CCCCOc1cc(ccc1F)-c1cc(ncc1F)N2 (single isomer, unassigned) [Example 20, 3,21-difluoro-14-methyl-10-[(methylsulfanyl)methyl]-13,19-dioxa-5,7,25-triazatetracyclo[18.3.1.1^2,6.1^8,12]hexacosa-1(24),2(26),3,5,8(25),9,11,20,22-nonaene]

Second part, the compound before the results:

Compound | IC50 (CDK9/CycT1) | Selectivity high ATP CDK9 over high ATP CDK2: IC50 (high ATP CDK2)/IC50 (high ATP CDK9) (CDK9/CycT1) | IC50 (CDK2/CycE)
CSCc1cc2nc(c1)OC(C)CCCCCOc1cc(ccc1F)-c1cc(ncc1F)N2 (single isomer, unassigned) [Example 24, 3,22-difluoro-14-methyl-10-[(methylsulfanyl)methyl]-13,20-dioxa-5,7,26-triazatetracyclo[19.3.1.1^2,6.1^8,12]heptacosa-1(25),2(27),3,5,8(26),9,11,21,23-nonaene] | 68 nM | >294 | > 20000 nM
CSCc1cc2nc(c1)OC(C)CCCCCOc1cc(ccc1F)-c1cc(ncc1F)N2 (racemic) [Example 23, (rac)-3,22-difluoro-14-methyl-10-[(methylsulfanyl)methyl]-13,20-dioxa-5,7,26-triazatetracyclo[19.3.1.1^2,6.1^8,12]heptacosa-1(25),2(27),3,5,8(26),9,11,21,23-nonaene] | 67 nM | >298 | > 20000 nM
CSCc1cc2nc(c1)OC(C)CCCOc1cc(ccc1F)-c1cc(ncc1F)N2 (single isomer, unassigned) [Example 13, 3,20-difluoro-14-methyl-10-[(methylsulfanyl)methyl]-13,18-dioxa-5,7,24-triazatetracyclo[17.3.1.1^2,6.1^8,12]pentacosa-1(23),2(25),3,5,8(24),9,11,19,21-nonaene] | 4 nM | 178 | 711 nM
CSCc1cc2nc(c1)OC(C)CCCCCOc1cc(ccc1F)-c1cc(ncc1F)N2 (single isomer, unassigned) [Example 25, 3,22-difluoro-14-methyl-10-[(methylsulfanyl)methyl]-13,20-dioxa-5,7,26-triazatetracyclo[19.3.1.1^2,6.1^8,12]heptacosa-1(25),2(27),3,5,8(26),9,11,21,23-nonaene] | 93 nM | >215 | > 20000 nM
CSCc1cc2nc(c1)OC(C)CCCOc1cc(ccc1F)-c1cc(ncc1F)N2 (single isomer, unassigned) [Example 12, 3,20-difluoro-14-methyl-10-[(methylsulfanyl)methyl]-13,18-dioxa-5,7,24-triazatetracyclo[17.3.1.1^2,6.1^8,12]pentacosa-1(23),2(25),3,5,8(24),9,11,19,21-nonaene] | 4 nM | 1613 | 6450 nM
